The results in this text go back to article PMC10351190, “Isolation and identification of active ingredients and biological activity of Dioscorea nipponica Makino” (BMC Complementary Medicine and Therapies, 2023).

SMILES strings stand for the structures.

The target in the assay is T1, α-glucosidase.
T1 construct: gene MAL12
The assay is described as follows: pNPG hydrolysis, absorbance […] nm. In kind it is biochemical. To be noted: pNPG substrate ([…] stock), pH […] °C, […] phosphate.
Turning to `COC(=O)c1cc(O)c(O)c(O)c1` [compound 6, methyl gallate], the IC50 (as a rule, the concentration needed to halve the response being measured) is greater than 800 µM.

Regarding `COc1c(O)cc(C[C@H](O)c2ccccc2)c(C(=O)O)c1O` [compound 1, diosniposide E], the half-inhibitory concentration (IC50) is greater than 800 µM.

Compound `COc1cc2c(ccc3cc(O)cc(OC)c32)cc1O` [compound 4, 3,5-dimethoxyphenanthrene-2,7-diol] gave a half-inhibitory concentration (IC50) of 31.4 ± 0.18 µM.

`O=C(O)c1c(O)cc(O)cc1C[C@H](O)c1ccccc1` [compound 2, diosniponol C] registered a half-inhibitory concentration (IC50) greater than 800 µM.

`COc1cc2c(ccc3c(-c4c(O)cc(OC)c5c4ccc4cc(O)c(OC)cc45)c(O)cc(OC)c32)cc1O` [compound 8, 2,2',7,7'-tetrahydroxy-4,4',6,6'-tetramethoxy-1,1'-biphenanthrenes]: the IC50 was greater than 800 µM.

The compound `COc1cc(C(=O)O)ccc1O` [compound 7, vanillic acid] returned an IC50 greater than 800 µM.

As to `O=c1cc(-c2ccc(O)cc2)oc2cc(O)cc(O)c12` [compound 9, apigenin], the IC50 was greater than 800 µM.

`O=C(/C=C/C=C/c1ccc(O)cc1)CCc1ccc(O)cc1` [compound 3, 1,7-bis(4-hydroxyphenyl)hepta-4E,6E-dien-3-one] gave a half-inhibitory concentration (IC50) of 1.6 ± 0.17 µM.

`O=C(O)c1cc(O)c(O)c(O)c1` [compound 5, gallic acid]: the IC50 was greater than 800 µM.
